We go through 2 compounds from patent US12649748B2, “Wee1 inhibitor and use thereof” (JIANGSU TASLY DIYI PHARMACEUTICAL CO., LTD., priority 2021, dated 2026).

Data set [1] can be described thus: Compound pharmacokinetics in mice. It counts as in vivo. The conditions noted are these: male ICR mice, oral gavage 10 mg/kg, plasma; for Cmax / AUC(0-inf) / half-life: mouse; for AUC(0-inf): read-out: AUCinf—Pred; for half-life: read-out: T½ (converted). As for the experimental part:
To investigate the pharmacokinetic properties of the compound in mice, six male ICR mice were given the compound by oral gavage (10 mg/kg) at the corresponding dose, and each route of administration was divided into two groups: group A mice had anticoagulated whole blood collected at 5 min, 30 min, 2 h and 8 h after administration, while group B mice had anticoagulated whole blood collected at 15 min, 1 h, 4 h and 24 h after administration, isolated plasma;
The plasma concentrations of the compounds were determined by LC-MS using a standard curve calibration method. Plasma concentration-time data were fitted to pharmacokinetic parameters using Winnolin 5.2 software.

Another data set concerns the target T1, CYP2B6 (Homo sapiens, UniProt P20813).
T1 sequence (P20813 1-491): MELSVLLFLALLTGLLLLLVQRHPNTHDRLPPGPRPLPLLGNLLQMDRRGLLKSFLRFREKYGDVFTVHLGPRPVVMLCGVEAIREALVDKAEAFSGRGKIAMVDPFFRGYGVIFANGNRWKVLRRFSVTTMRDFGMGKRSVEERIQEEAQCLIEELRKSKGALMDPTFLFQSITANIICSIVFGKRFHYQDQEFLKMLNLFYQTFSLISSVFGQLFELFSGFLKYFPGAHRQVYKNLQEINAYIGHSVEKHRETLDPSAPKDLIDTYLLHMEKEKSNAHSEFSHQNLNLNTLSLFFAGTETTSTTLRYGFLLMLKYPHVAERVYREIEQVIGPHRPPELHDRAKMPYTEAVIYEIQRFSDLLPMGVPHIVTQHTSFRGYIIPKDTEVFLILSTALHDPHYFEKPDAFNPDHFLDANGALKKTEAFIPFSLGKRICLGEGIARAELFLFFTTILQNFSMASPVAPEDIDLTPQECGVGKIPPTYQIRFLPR
The experiment in a line: Inhibition of cytochrome P450, 2B6. It counts as in vitro ADME. The conditions noted are these: CYP2B6 enzyme, pH 7.4, compound concentration 10 μM, read-out: CYP inhibition/% 2B6. As for the experimental part:
Enzymatic experiments were performed to quantify the inhibition of CYP450 enzyme activity of each isoform of CYP450 by small molecule inhibitors through fluorescence generated by the oxidation of the substrate by cytochrome P450. […] The Solution B composition used for the experiment was: 40 U/mL G6PDH (Sigma-aldrich, Cat #G6378). The substrate mix was 0.05× Solution A, 0.01× Solution B, 50 mM Potassium Phosphate, 0.01 mM BOMCC/0.01 mM EOMCC/0.001 mM DBOMF. […] The data were analyzed and processed using GraphPad Prism 6 software to obtain IC50 values.

In a further data set the target is T2, hERG potassium channel (Homo sapiens, UniProt Q12809).
T2 construct: expressed in transfected cells; host or cells: CHO (Chinese hamster ovary) stably transfected cell line
T2 sequence (Q12809 whole entry): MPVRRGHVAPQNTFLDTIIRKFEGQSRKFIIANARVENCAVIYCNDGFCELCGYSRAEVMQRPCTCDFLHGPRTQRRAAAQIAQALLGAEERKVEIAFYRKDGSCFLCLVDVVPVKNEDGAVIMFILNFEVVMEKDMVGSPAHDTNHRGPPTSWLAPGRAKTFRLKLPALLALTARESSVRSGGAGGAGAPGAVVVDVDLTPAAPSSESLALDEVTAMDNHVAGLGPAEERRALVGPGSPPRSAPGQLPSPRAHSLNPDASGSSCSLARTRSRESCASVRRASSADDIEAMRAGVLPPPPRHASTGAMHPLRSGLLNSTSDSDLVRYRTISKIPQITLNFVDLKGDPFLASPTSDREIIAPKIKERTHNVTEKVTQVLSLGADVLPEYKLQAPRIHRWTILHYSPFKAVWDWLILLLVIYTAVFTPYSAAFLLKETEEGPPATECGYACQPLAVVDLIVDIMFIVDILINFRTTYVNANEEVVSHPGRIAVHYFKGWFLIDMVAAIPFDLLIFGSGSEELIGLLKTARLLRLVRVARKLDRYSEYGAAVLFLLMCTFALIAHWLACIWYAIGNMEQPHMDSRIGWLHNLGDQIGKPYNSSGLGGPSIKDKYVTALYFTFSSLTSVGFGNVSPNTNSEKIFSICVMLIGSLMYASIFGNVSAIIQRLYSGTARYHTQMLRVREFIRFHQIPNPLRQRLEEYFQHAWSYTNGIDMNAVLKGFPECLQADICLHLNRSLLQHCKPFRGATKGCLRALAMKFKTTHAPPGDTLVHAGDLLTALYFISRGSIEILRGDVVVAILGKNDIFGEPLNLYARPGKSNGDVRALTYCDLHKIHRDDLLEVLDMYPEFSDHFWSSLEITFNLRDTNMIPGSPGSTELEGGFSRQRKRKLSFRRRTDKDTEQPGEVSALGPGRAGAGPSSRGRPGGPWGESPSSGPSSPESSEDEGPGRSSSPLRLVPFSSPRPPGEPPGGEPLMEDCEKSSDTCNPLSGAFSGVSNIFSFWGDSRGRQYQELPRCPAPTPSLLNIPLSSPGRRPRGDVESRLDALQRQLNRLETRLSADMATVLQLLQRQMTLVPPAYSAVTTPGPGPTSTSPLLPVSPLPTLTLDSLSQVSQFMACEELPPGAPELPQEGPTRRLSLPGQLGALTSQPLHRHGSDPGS
In words: hERG potassium channel inhibition assay (patch clamp, CHO hERG cells). Format: cell-based. The following applies: CHO cells overexpressing hERG potassium channel, whole cell patch clamp.

Experimental for hERG potassium channel: The cell line used for the patch clamp assay was a 10th generation CHO cell overexpressing hERG potassium channel cDNA.
CHO hERG cells were cultured in Petri dishes or flasks at 37° C. in a 5% CO2 incubator. Cells were dropped onto circular slides 24-48 hours prior to electrophysiological experiments and cultured in cell culture medium and used for experiments after the cells had been adhered.
Compound powders are dissolved in the extracellular solution and are subjected to a routine 5 to 10 minute sonication and shaking to ensure complete dissolution of the compound.
The final concentrations of compounds used for electrophysiological assays were 5, 20 μM and the final concentration of DMSO was 0.1%.
Cell membrane currents were recorded using a HEKA EPC-10 USB patch-clamp amplifier (HEKA Elektronik, Germany).
1) A coverslip with a large number of uniformly growing individual CHO hERG cells on its surface was taken. Place in a continuous recording cell on an inverted microscope, perfused with extracellular fluid (approximately 1 ml per minute) and recorded continuously, waiting for the current to stabilize. […]
3) The extracellular solution containing the drug to be tested was then perfused and recorded until the inhibitory effect of the drug on the hERG current reached a steady state, at which point the peak tail current was the post-drug current value. […]

Regarding `CN1CCN(c2ccc(Nc3ncc4cnn(-c5cccc(N=S(C)(C)=O)n5)c4n3)cc2)CC1` [Compound 1], in data set [1], the Cl_pred turned out to be 658 mL/min/kg, the Cmax came to 169 ng/mL, the AUC(0-inf) stood at 260 ng·h/mL and the half-life was 1.71 h. Besides, the inhibition at 30 min, 10 µM at CYP2B6 is 4.38%. The compound further came in with an inhibition at 5 µM against hERG potassium channel (5 μM) of 5.07%. At hERG potassium channel (20 μM), this compound showed an inhibition at 20 µM of 15.1%.

`C=CCn1c(=O)c2cnc(Nc3ccc(N4CCN(C)CC4)cc3)nc2n1-c1cccc(C(C)(C)O)n1` [AZD-1775, reference compound]: in data set [1], the Cl_pred stood at 347 mL/min/kg, the Cmax stood at 445 ng/mL, the AUC(0-inf) is 500 ng·h/mL and the half-life was 0.77 h.
